From patent US20230416330A1, “Optimized GIP Peptide Analogues” (Antag Therapeutics ApS, priority 2019, published 2023)
Starred links: 1 amine or outer side, 2 acyl side, 3 side chain; linkers in the order of their positions; H or OH if unused. Non-standard residues stand in square brackets, D forms with d. Residues, ends and D or L forms follow the SMILES beside them. Groups on a side chain read outwards from the residue. *: point of attachment. C18 diacid = O=C(O)CCCCCCCCCCCCCCCCC(=O)*; C16 diacid = O=C(O)CCCCCCCCCCCCCCC(=O)*; γGlu = O=C(O)[C@H](CCC(=O)[*:2])N[*:1]; Glutaryl = O=C(CCCC(=O)[*:2])[*:1]; Nle = CCCC[C@H](N)C(=O)O; AEEA = NCCOCCOCC(=O)O; Aib = CC(C)(N)C(=O)O

Target: T1, human GIP receptor (Homo sapiens, UniProt P48546)
T1 construct: host or cells: HEK-293 cells, transient transfection (Lipofectamine 2000), cDNA in pCMV-Script vector
T1 sequence (P48546 22-466): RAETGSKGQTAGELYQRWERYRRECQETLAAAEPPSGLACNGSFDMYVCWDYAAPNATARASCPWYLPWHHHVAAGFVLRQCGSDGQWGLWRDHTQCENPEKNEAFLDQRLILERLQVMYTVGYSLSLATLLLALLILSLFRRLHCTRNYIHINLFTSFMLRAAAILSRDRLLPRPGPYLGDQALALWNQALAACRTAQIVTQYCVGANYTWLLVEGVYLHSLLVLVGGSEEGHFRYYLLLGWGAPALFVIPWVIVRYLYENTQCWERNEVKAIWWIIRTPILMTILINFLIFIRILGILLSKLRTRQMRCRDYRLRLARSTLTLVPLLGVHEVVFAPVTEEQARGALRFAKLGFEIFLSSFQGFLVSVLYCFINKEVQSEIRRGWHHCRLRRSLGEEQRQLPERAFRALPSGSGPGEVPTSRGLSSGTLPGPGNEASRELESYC
Assay: cAMP assay Alternative 1 (CisBio assay), GIPR antagonism
Assay type: cell-based
Settings: for cAMP antagonism % inhib: Table 2B, % inhibition of Emax
Experimental: HEK293 cells were cultured in 10% CO2 and 37° C. in Dulbecco's modified Eagle's medium supplemented with 10% fetal bovine serum, 2 mM glutamine, 180 units/ml penicillin, and 45 µg/ml streptomycin. Transient transfection with hGIPR for the CisBio assay from Table 2C was performed by using Lipofectamine 2000.
The in vitro functional activity of compounds towards human GIP receptor can also be determined in HEK-293 cells transiently expressing the receptor. On the day of the assay, cells were resuspended in HBSS buffer (Gibco, 14025-50) supplemented with […] (Gibco, 15630-106), 0.1% Pluronic F-68 (Gibco, 24040-032) and 0.1% casein (Sigma, C4765), and plated in 384-well plates at a density of 5000 cells/well. The GIP peptide analogues of the present disclosure were diluted in HBSS buffer supplemented with 20 mM HEPES, 0.1% pluronic, 0.1% casein and 500 uM IBMX. […] The resulting decrease in intracellular cAMP was quantitatively determined using the CisBio cAMP Dynamic 2 HTRF Assay Kit. The assay is based on a competition between native cAMP produced by cells and cAMP labeled with the dye d2 for binding to a cryptate labeled antibody. The specific signal (i.e. energy transfer signal) is inversely proportional to the concentration of cAMP in the sample.
The cAMP-d2 conjugate and the antibody anti-cAMP-Cryptate, both diluted in lysis buffer provided in the kit, were added to the cells according to the manufacturer's protocol. The resulting competitive assay was incubated for 60 minutes at room temperature, and the signal was detected by using a PerkinElmer Envision® instrument with excitation at 320 nm and emission at 665 nm and 620 nm. The HTRF ratio (emission at 665 nm/620 nm*10,000) is inversely proportional to the amount of cAMP present and is converted to nM cAMP per well using a cAMP standard curve. The dose-response curves were fitted using the non-linear regression analysis (four-logistic parameter equation) in GraphPad Prism, whereby pIC50 values were estimated. To test for agonistic properties at the GIP receptor, compounds were diluted and added to cells as described above and incubated for 30 min at 37° C. The resulting increase in intracellular cAMP was determined using the CisBio cAMP Dynamic 2 HTRF Assay Kit as described above.
The dose-response curves were fitted using the non-linear regression analysis (four-logistic parameter equation) in GraphPad Prism, whereby pIC50 values were estimated.

CC[C@H](C)[C@H](NC(=O)[C@H](CO)NC(=O)[C@H](Cc1ccc(O)cc1)NC(=O)[C@H](CC(=O)O)NC(=O)[C@H](CO)NC(=O)[C@@H](NC(=O)[C@H](Cc1ccccc1)NC(=O)[C@@H](NC(=O)CNC(=O)[C@@H](N)CCC(=O)O)[C@@H](C)O)[C@@H](C)CC)C(=O)N[C@@H](C)C(=O)N[C@@H](CCSC)C(=O)N[C@@H](CC(=O)O)C(=O)N[C@@H](CCCCN)C(=O)N[C@H](C(=O)N[C@@H](CCCCNC(=O)CCCCCCCCCCCCCCC(=O)O)C(=O)N[C@@H](CCC(N)=O)C(=O)N[C@@H](CCC(N)=O)C(=O)N[C@@H](CC(=O)O)C(=O)N[C@@H](Cc1ccccc1)C(=O)N[C@H](C(=O)N[C@@H](CCC(=O)O)C(=O)N[C@@H](Cc1c[nH]c2ccccc12)C(=O)N[C@@H](CC(C)C)C(=O)N[C@@H](CC(C)C)C(=O)N[C@@H](C)C(=O)N[C@@H](CCC(N)=O)C(=O)N[C@@H](C)C(=O)N1CCC[C@H]1C(=O)N[C@@H](CO)C(=O)N[C@@H](CO)C(=O)NCC(=O)N[C@@H](C)C(=O)N1CCC[C@H]1C(=O)N1CCC[C@H]1C(=O)N1CCC[C@H]1C(=O)N[C@@H](CO)C(=O)O)C(C)C)[C@@H](C)CC [AT623] (H-EGTFISDYSIAMDKIK(C16 diacid)QQDFVEWLLAQAPSSGAPPPS-OH; N-terminus assumed)
cAMP antagonism % inhib: 98%

CCCC[C@H](NC(=O)C(C)(C)NC(=O)[C@@H](NC(=O)[C@H](CO)NC(=O)[C@H](Cc1ccc(O)cc1)NC(=O)[C@H](CC(=O)O)NC(=O)[C@H](CO)NC(=O)[C@@H](NC(=O)[C@H](Cc1ccccc1)NC(=O)[C@@H](NC(=O)CNC(=O)[C@@H](N)CCC(=O)O)[C@@H](C)O)[C@@H](C)CC)[C@@H](C)CC)C(=O)N[C@@H](CC(=O)O)C(=O)N[C@@H](CCCCN)C(=O)N[C@H](C(=O)N[C@@H](CCCCNC(=O)CCCCCCCCCCCCCCC(=O)O)C(=O)N[C@@H](CCC(N)=O)C(=O)N[C@@H](CCC(N)=O)C(=O)N[C@@H](CC(=O)O)C(=O)N[C@@H](Cc1ccccc1)C(=O)N[C@H](C(=O)N[C@@H](CCC(=O)O)C(=O)N[C@@H](Cc1c[nH]c2ccccc12)C(=O)N[C@@H](CC(C)C)C(=O)N[C@@H](CC(C)C)C(=O)N[C@@H](C)C(=O)N[C@@H](CCC(N)=O)C(=O)N[C@@H](CCCCN)C(=O)N1CCC[C@H]1C(=O)N[C@@H](CO)C(=O)N[C@@H](CO)C(=O)NCC(=O)N[C@@H](C)C(=O)N1CCC[C@H]1C(=O)N1CCC[C@H]1C(=O)N1CCC[C@H]1C(=O)N[C@@H](CO)C(=O)O)C(C)C)[C@@H](C)CC [AT667] (H-EGTFISDYSI[Aib][Nle]DKIK(C16 diacid)QQDFVEWLLAQKPSSGAPPPS-OH; N-terminus assumed)
cAMP antagonism % inhib: 86%

CCCC[C@H](NC(=O)C(C)(C)NC(=O)[C@@H](NC(=O)[C@H](CO)NC(=O)[C@H](Cc1ccc(O)cc1)NC(=O)[C@H](CC(=O)O)NC(=O)[C@H](CO)NC(=O)[C@@H](NC(=O)[C@H](Cc1ccccc1)NC(=O)[C@@H](NC(=O)CNC(=O)[C@@H](N)CCC(=O)O)[C@@H](C)O)[C@@H](C)CC)[C@@H](C)CC)C(=O)N[C@@H](CC(=O)O)C(=O)N[C@@H](CCCCN)C(=O)N[C@H](C(=O)N[C@@H](CCCCNC(=O)COCCOCCNC(=O)COCCOCCNC(=O)CC[C@H](NC(=O)CCCCCCCCCCCCCCCCC(=O)O)C(=O)O)C(=O)N[C@@H](CCC(N)=O)C(=O)N[C@@H](CCC(N)=O)C(=O)N[C@@H](CC(=O)O)C(=O)N[C@@H](Cc1ccccc1)C(=O)N[C@H](C(=O)N[C@@H](CCC(=O)O)C(=O)N[C@@H](Cc1c[nH]c2ccccc12)C(=O)N[C@@H](CC(C)C)C(=O)N[C@@H](CC(C)C)C(=O)N[C@@H](C)C(=O)N[C@@H](CCC(N)=O)C(=O)N[C@@H](CCCCN)C(=O)N1CCC[C@H]1C(=O)N[C@@H](CO)C(=O)N[C@@H](CO)C(=O)NCC(=O)N[C@@H](C)C(=O)N1CCC[C@H]1C(=O)N1CCC[C@H]1C(=O)N1CCC[C@H]1C(=O)N[C@@H](CO)C(=O)O)C(C)C)[C@@H](C)CC [AT686] (H-EGTFISDYSI[Aib][Nle]DKIK([AEEA-AEEA-γGlu-C18 diacid])QQDFVEWLLAQKPSSGAPPPS-OH; N-terminus assumed)
cAMP antagonism % inhib: 82%

CCCC[C@H](NC(=O)[C@H](C)NC(=O)[C@@H](NC(=O)[C@H](CO)NC(=O)[C@H](Cc1ccc(O)cc1)NC(=O)[C@H](CC(=O)O)NC(=O)[C@H](CO)NC(=O)[C@@H](NC(=O)[C@H](Cc1ccccc1)NC(=O)[C@@H](NC(=O)CNC(=O)[C@@H](N)CCC(=O)O)[C@@H](C)O)[C@@H](C)CC)[C@@H](C)CC)C(=O)N[C@@H](CC(=O)O)C(=O)N[C@@H](CCCCN)C(=O)N[C@H](C(=O)N[C@@H](CCCCNC(=O)COCCOCCNC(=O)COCCOCCNC(=O)CC[C@H](NC(=O)CCCCCCCCCCCCCCCCC(=O)O)C(=O)O)C(=O)N[C@@H](CCC(N)=O)C(=O)N[C@@H](CCC(N)=O)C(=O)N[C@@H](CC(=O)O)C(=O)N[C@@H](Cc1ccccc1)C(=O)N[C@H](C(=O)N[C@@H](CCC(=O)O)C(=O)N[C@@H](Cc1c[nH]c2ccccc12)C(=O)N[C@@H](CC(C)C)C(=O)N[C@@H](CC(C)C)C(=O)N[C@@H](C)C(=O)N[C@@H](CCC(N)=O)C(=O)N[C@@H](CCCCN)C(=O)N1CCC[C@H]1C(=O)N[C@@H](CO)C(=O)N[C@@H](CO)C(=O)NCC(=O)N[C@@H](C)C(=O)N1CCC[C@H]1C(=O)N1CCC[C@H]1C(=O)N1CCC[C@H]1C(=O)N[C@@H](CO)C(=O)O)C(C)C)[C@@H](C)CC [AT683] (H-EGTFISDYSIA[Nle]DKIK([AEEA-AEEA-γGlu-C18 diacid])QQDFVEWLLAQKPSSGAPPPS-OH; N-terminus assumed)
cAMP antagonism % inhib: 93%

CC[C@H](C)[C@H](NC(=O)[C@H](CO)NC(=O)[C@H](Cc1ccc(O)cc1)NC(=O)[C@H](CC(=O)O)NC(=O)[C@H](CO)NC(=O)[C@@H](NC(=O)[C@H](Cc1ccccc1)NC(=O)[C@@H](NC(=O)CNC(=O)[C@@H](N)CCC(=O)O)[C@@H](C)O)[C@@H](C)CC)C(=O)N[C@@H](C)C(=O)N[C@@H](CCSC)C(=O)N[C@@H](CC(=O)O)C(=O)N[C@@H](CCCCN)C(=O)N[C@H](C(=O)N[C@@H](CCCCNC(=O)CCCCCCCCCCCCCCC(=O)O)C(=O)N[C@@H](CCC(N)=O)C(=O)N[C@@H](CCC(N)=O)C(=O)N[C@@H](CC(=O)O)C(=O)N[C@@H](Cc1ccccc1)C(=O)N[C@H](C(=O)N[C@@H](CCC(=O)O)C(=O)N[C@@H](Cc1c[nH]c2ccccc12)C(=O)N[C@@H](CC(C)C)C(=O)N[C@@H](CC(C)C)C(=O)N[C@@H](C)C(=O)N[C@@H](CCC(N)=O)C(=O)N[C@@H](CCCCN)C(=O)N1CCC[C@H]1C(=O)N[C@@H](CO)C(=O)N[C@@H](CO)C(=O)NCC(=O)N[C@@H](C)C(=O)N1CCC[C@H]1C(=O)N1CCC[C@H]1C(=O)N1CCC[C@H]1C(=O)N[C@@H](CO)C(=O)O)C(C)C)[C@@H](C)CC [AT617] (H-EGTFISDYSIAMDKIK(C16 diacid)QQDFVEWLLAQKPSSGAPPPS-OH; N-terminus assumed)
IC50: 794 pM | cAMP antagonism % inhib: 91%

CCCC[C@H](NC(=O)[C@H](C)NC(=O)[C@@H](NC(=O)[C@H](CO)NC(=O)[C@H](Cc1ccc(O)cc1)NC(=O)[C@H](CC(=O)O)NC(=O)[C@H](CO)NC(=O)[C@@H](NC(=O)[C@H](Cc1ccccc1)NC(=O)[C@@H](NC(=O)CNC(=O)CCCC(=O)O)[C@@H](C)O)[C@@H](C)CC)[C@@H](C)CC)C(=O)N[C@@H](CC(=O)O)C(=O)N[C@@H](CCCCN)C(=O)N[C@H](C(=O)N[C@@H](CCCCNC(=O)CCCCCCCCCCCCCCC(=O)O)C(=O)N[C@@H](CCC(N)=O)C(=O)N[C@@H](CCC(N)=O)C(=O)N[C@@H](CC(=O)O)C(=O)N[C@@H](Cc1ccccc1)C(=O)N[C@H](C(=O)N[C@@H](CCC(=O)O)C(=O)N[C@@H](Cc1c[nH]c2ccccc12)C(=O)N[C@@H](CC(C)C)C(=O)N[C@@H](CC(C)C)C(=O)N[C@@H](C)C(=O)N[C@@H](CCC(N)=O)C(=O)N[C@@H](CCCCN)C(=O)N1CCC[C@H]1C(=O)N[C@@H](CO)C(=O)N[C@@H](CO)C(=O)NCC(=O)N[C@@H](C)C(=O)N1CCC[C@H]1C(=O)N1CCC[C@H]1C(=O)N1CCC[C@H]1C(=O)N[C@@H](CO)C(=O)O)C(C)C)[C@@H](C)CC [AT700] (Glutaryl-GTFISDYSIA[Nle]DKIK(C16 diacid)QQDFVEWLLAQKPSSGAPPPS-OH)
cAMP antagonism % inhib: 89%
